Measurements reported in ChEMBL document CHEMBL1201862, “PubChem BioAssay data set” (2004).
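Method: 48-hour compound exposure of cells in 96-well plates, five concentrations, linear interpolation of endpoints. GI50: concentration for 50% inhibition of growth.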 Activity calls are given as the source filed them. Cut-off read from the data, not from the text of the source: active = GI50 up to about 1.1 µM and inactive = higher.

What was measured:
Test in all cases: NCI-60 cell line screen, 48 h
PC-3 = system: PC-3
HCT-15 = system: HCT-15
UACC-62 = system: UACC-62
HT-29 = system: HT-29
UACC-257 = system: UACC-257
HCC 2998 = system: HCC 2998
SW-620 = system: SW-620
MOLT-4 = system: MOLT-4
COLO 205 = system: COLO 205
RXF 393 = system: RXF 393
NCI-H23 = system: NCI-H23
ACHN = system: ACHN
HL-60 = system: HL-60
KM12 = system: KM12
SK-MEL-2 = system: SK-MEL-2
Malme-3M = system: Malme-3M
UO-31 = system: UO-31
MDA-MB-435 = system: MDA-MB-435
SNB-19 = system: SNB-19
SK-MEL-28 = system: SK-MEL-28

Compound	GI50 (PC-3)	GI50 (HCT-15)	GI50 (UACC-62)	GI50 (HT-29)	GI50 (UACC-257)	GI50 (HCC 2998)	GI50 (SW-620)	GI50 (MOLT-4)	GI50 (COLO 205)	GI50 (RXF 393)	GI50 (NCI-H23)	GI50 (ACHN)	GI50 (HL-60)	GI50 (KM12)	GI50 (SK-MEL-2)	GI50 (Malme-3M)	GI50 (UO-31)	GI50 (MDA-MB-435)	GI50 (SNB-19)	GI50 (SK-MEL-28)
CC1/C=C/C=C/CC/C=C/C=C/C=C/C=C/C(OC2OC(C)C(O)C(N)C2O)CC2OC(CC(O)C(O)CCC(O)CC(O)CC(O)CC(=O)OC(C)C(C)C1O)CC(O)C2C(=O)O (stereo not given)	18.8 µM (inactive)	27.3 µM	20.9 µM (inactive)	17.3 µM (inactive)	17 µM (inactive)	14.8 µM (inactive)	20.7 µM (inactive)	20.2 µM (inactive)	21.8 µM (inactive)	13.8 µM (inactive)	18.1 µM (inactive)	17.7 µM (inactive)	23.9 µM (inactive)	26.8 µM (inactive)	28.6 µM (inactive)	17.9 µM (inactive)	21 µM (inactive)	17.6 µM (inactive)	18.3 µM (inactive)	19.7 µM (inactive)
COC(=O)[C@H](Cc1ccccc1)NC(=O)N1CCCN(C(=O)N[C@@H](Cc2ccccc2)C(=O)OC)CCCN(C(=O)N[C@@H](Cc2ccccc2)C(=O)OC)CCC1	15.8 µM (inactive)	27.8 µM	16.2 µM (inactive)	16.8 µM (inactive)	18.2 µM (inactive)	18.1 µM (inactive)	19.5 µM (inactive)	17.7 µM (inactive)	18 µM (inactive)	16.9 µM (inactive)	27.2 µM (inactive)	17.1 µM (inactive)	32.8 µM (inactive)	28.9 µM (inactive)	15 µM (inactive)	17.2 µM (inactive)	15.9 µM (inactive)	20.6 µM (inactive)	27.7 µM (inactive)	19.4 µM (inactive)
Cc1cccc(/C=N\NC(=S)N2CCCCC2)n1	0.0435 µM (active)	0.0371 µM	0.383 µM (active)	< 0.01 µM (active)	< 0.01 µM (active)	9.77 µM (inactive)	0.334 µM (active)	< 0.01 µM (active)	< 0.01 µM (active)	0.145 µM (active)	0.0689 µM (active)	0.159 µM (active)	0.0112 µM (active)	0.13 µM (active)	0.612 µM (active)	0.867 µM (active)	0.216 µM (active)	0.56 µM (active)	0.665 µM (active)	0.532 µM (active)
COP(=O)(OC)c1ccc(NCc2cc(O)ccc2O)cc1	> 60.4 µM (inactive)	21.3 µM	19.5 µM (inactive)	24.8 µM (inactive)	22.2 µM (inactive)	23 µM (inactive)	42 µM (inactive)	30.2 µM (inactive)	27.7 µM (inactive)	25.3 µM (inactive)	34.1 µM (inactive)	18.3 µM (inactive)	21.4 µM (inactive)	19.9 µM (inactive)	46.6 µM (inactive)	18.9 µM (inactive)	15.5 µM (inactive)	26.8 µM (inactive)	37.8 µM (inactive)	30.2 µM (inactive)
O=C(/C=C/c1ccccc1)CSc1nc2ccc(I)cc2c(=O)n1Cc1ccccc1	18.3 µM (inactive)	19.5 µM	35.2 µM (inactive)	26.3 µM (inactive)	19.4 µM (inactive)	19.3 µM (inactive)	38.6 µM (inactive)	9.82 µM (inactive)	17.5 µM (inactive)	17 µM (inactive)	18.1 µM (inactive)	7.64 µM (inactive)	17.1 µM (inactive)	14.5 µM (inactive)	28.4 µM (inactive)	23.6 µM (inactive)	0.13 µM (active)	38.9 µM (inactive)	42.6 µM (inactive)	99.5 µM (inactive)
O=C(Nc1ccc2cc3ccccc3cc2c1)c1cc2c(cc1Cl)Sc1nccn1S2(=O)=O	6.47 µM (inactive)	20.7 µM	64.9 µM (inactive)	18.9 µM (inactive)	58.3 µM (inactive)	6.84 µM (inactive)	13.9 µM (inactive)	33.4 µM (inactive)	87.3 µM (inactive)	45.6 µM (inactive)	46.5 µM (inactive)	67.1 µM (inactive)	17.7 µM (inactive)	33.7 µM (inactive)	85.9 µM (inactive)	19.5 µM (inactive)	68.5 µM (inactive)	28.4 µM (inactive)	25.1 µM (inactive)	19.1 µM (inactive)
COc1ccc(C(O)/C(=N/N)c2nc3ccc(Cl)cc3nc2O)cc1 (stereo not given)	> 100 µM (inactive)	> 100 µM	> 100 µM (inactive)	> 100 µM (inactive)	> 100 µM (inactive)	> 100 µM (inactive)	> 100 µM (inactive)	> 100 µM (inactive)	> 100 µM (inactive)	> 100 µM (inactive)	> 100 µM (inactive)	> 100 µM (inactive)	> 100 µM (inactive)	> 100 µM (inactive)	> 100 µM (inactive)	> 100 µM (inactive)	> 100 µM (inactive)	> 100 µM (inactive)	> 100 µM (inactive)	> 100 µM (inactive)
COc1ccc(C2C(C#N)=C(S)N(C3OC(CO)C(O)C(O)C3O)C(c3ccccc3)=C2C(C)=O)cc1 (stereo not given)	48.2 µM (inactive)	74.6 µM	58.6 µM (inactive)	46.1 µM (inactive)	77.4 µM (inactive)	92 µM (inactive)	7.18 µM (inactive)	28.1 µM (inactive)	> 100 µM (inactive)	> 100 µM (inactive)	> 100 µM (inactive)	83.9 µM (inactive)	39.7 µM (inactive)	> 100 µM (inactive)	49.7 µM (inactive)	70.6 µM (inactive)	> 100 µM (inactive)	32.6 µM (inactive)	89.3 µM (inactive)	91.8 µM (inactive)
COc1cc(C=O)cc(/C=N/c2ccccn2)c1O	3.64 µM (inactive)	29 µM	30 µM (inactive)	11.5 µM (inactive)	8.59 µM (inactive)	46.1 µM (inactive)	31.6 µM (inactive)	24.5 µM (inactive)	7.08 µM (inactive)	1.56 µM (inactive)	> 100 µM (inactive)	2.34 µM (inactive)	33.4 µM (inactive)	24.5 µM (inactive)	2.57 µM (inactive)	2.47 µM (inactive)	3.34 µM (inactive)	9.29 µM (inactive)	17.4 µM (inactive)	3.32 µM (inactive)
COc1ccccc1C1(c2c(OC)c(=O)c2=O)SCCCS1	> 100 µM (inactive)	61 µM	> 100 µM (inactive)	> 100 µM (inactive)	85.1 µM (inactive)	> 100 µM (inactive)	> 100 µM (inactive)	72.4 µM (inactive)	> 100 µM (inactive)	44.5 µM (inactive)	48.3 µM (inactive)	> 100 µM (inactive)	> 100 µM (inactive)	> 100 µM (inactive)	> 100 µM (inactive)	62.5 µM (inactive)	> 100 µM (inactive)	> 100 µM (inactive)	74 µM (inactive)	> 100 µM (inactive)
